According to US20080004272A1, “Compositions and methods for modulating gated ion channels” (PainCeptor Pharma Corporation, priority 2006, published 2008):
Read-outs that look alike come from different tables or passages of the source.

Key:
[1] = test system: carrageenan-induced thermal hyperalgesia; experiment: Carrageenan model, thermal hyperalgesia (Hargreaves' assay); format: in vivo; conditions: rat, 10 mg/kg s.c. 30 min prior to carrageenan, tested 2, 3 and 4 h post
Experimental: Acute inflammatory hyperalgesia is induced in rats by unilateral injection of […] of a 3% solution of 1-carrageenan into the plantar surface of the left hind paw 2-4 h prior to testing. Thermal nociceptive thresholds are determined according to the method described elsewhere (Hargreaves et al., 1988). Briefly, through the glass surface, a radiant heat source (8 V, 50 W projector bulb) is focused onto the plantar surface of the hind paw. The rat's paw-withdrawal latency to this stimulus is recorded to the nearest 0.1 s. Each latency score is an average of three trials, which are separated by at least 5 min. In all rats, both the injured and uninjured hind paws are similarly tested, allowing direct comparisons between inflamed and non-inflamed paws.
FIG. 5 illustrates the effect of Compound 203 (10 mg/kg s.c.) on the thermal hyperalgesia (observed in the Hargreaves' assay) resulting from an acute paw inflammation caused by the intraplantar injection of 150 μl of a 3% solution of λ-carrageenan. Compound 203 was given 30 min prior to carrageenan injection and thermal hyperalgesia was tested 2, 3, and 4 h post carrageenan injection.

[2] = target: T1, ASIC1a (Homo sapiens, UniProt P78348); experiment: Two-electrode voltage clamp in Xenopus laevis oocytes (Xo), acid-induced currents; format: cell-based; design: expressed in transfected cells; host or cells: Xenopus laevis oocytes (nuclear microinjection of expression vector such as pcDNA3); conditions: for inhibition at 50 µM: Xenopus oocytes, read-out: % inh. at 50 μM (Xo)
T1 sequence (P78348 1-528): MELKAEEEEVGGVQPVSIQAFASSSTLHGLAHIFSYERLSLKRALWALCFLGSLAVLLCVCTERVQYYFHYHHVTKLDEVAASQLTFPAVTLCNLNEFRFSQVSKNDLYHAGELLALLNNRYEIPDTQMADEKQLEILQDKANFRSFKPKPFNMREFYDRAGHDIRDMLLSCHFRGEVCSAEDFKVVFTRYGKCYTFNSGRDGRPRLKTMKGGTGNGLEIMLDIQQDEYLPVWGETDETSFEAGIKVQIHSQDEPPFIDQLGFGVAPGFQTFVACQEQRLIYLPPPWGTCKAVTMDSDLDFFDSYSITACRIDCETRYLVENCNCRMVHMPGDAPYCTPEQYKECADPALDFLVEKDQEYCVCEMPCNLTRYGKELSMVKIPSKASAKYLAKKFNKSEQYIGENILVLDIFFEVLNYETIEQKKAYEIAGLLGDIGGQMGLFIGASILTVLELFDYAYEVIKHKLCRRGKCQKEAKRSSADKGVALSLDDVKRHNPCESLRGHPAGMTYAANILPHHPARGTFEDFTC
How it was run: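 Defolliculated oocytes were nuclear-injected with channel cDNA and expressed for 2–4 days at 19 °C. Under two-electrode voltage clamp at room temperature, oocytes were superfused with pH 7.4 Ringer, and currents were evoked by switching to acidic MES Ringer (pH<7). Compound was present in both control and acidic solutions.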

CN1CCc2c(-c3ccccc3)cc(C#N)c(N)c2C1 [Compound 203, 8-Amino-2-methyl-5-phenyl-1,2,3,4-tetrahydro-isoquinoline-7-carbonitrile]
Effect on thermal hyperalgesia [1]: reduced the thermal hyperalgesia to level not significant to the control paw | IC50 [2]: 6.2 µM | inhibition at 50 µM [2]: > 70%

COc1ccc(F)cc1-c1cc(C#N)c(N)c2c1CCN(C)C2 [Compound 206, 8-Amino-5-(5-fluoro-2-methoxy-phenyl)-2-methyl-1,2,3,4-tetrahydro-isoquinoline-7-carbonitrile]
inhibition at 50 µM [2]: 50 to 70% | IC50 ([2]; Xenopus laevis oocytes, three point dose-response, read-out: IC50, half maximal inhibition of the acid-evoked response in hASIC1a): 34 µM
